Source: patent US4062958A, “Method of treating anxiety and compositions therefor” (American Cyanamid Company, priority 1976, dated 1977)

How the values were obtained:
[1] = tested on: clonic seizures caused by pentylenetetrazole; test: Protection against clonic seizures caused by pentylenetetrazole in rats; format: in vivo; conditions: Rattus norvegicus, oral, 2% starch vehicle, groups of at least 5, pentylenetetrazole 21 to 23 mg./kg. i.v. at estimated time of peak effect, read-out: Medium Effective Oral Dose ED50, protection against clonic seizures caused by pentylenetetrazole
Method: The anti-anxiety properties of the active compound of the present invention has been established in a test which indicates anxiolytic activity by the measure of protection from convulsions resulting from the administration of pentylenetetrazole. Graded dose levels of the compound of this invention were administered orally, in a 2% starch vehicle, to groups of at least 5 rats. At the estimated time of peak effect, the rats were treated intravenously with pentylenetetrazole at a dose of 21 to 23 mg./kg. of body weight. This dose is estimated to cause clonic seizures in 99% of unprotected rats. The effective dose (ED50) of the test compound for protection of 50% of the animals is calculated by the method of D. H. Finney in "Statistical Methods in Biological Assay", Second Edition, Hafner Publishing Co., New York, 1964, pp. 456-457. Representative results are given in the table which follows in comparison with chlordiazepoxide and meprobamate, which were tested in exactly the same manner. It has been reported [R. T. Hill and D. H. Tedeschi, "Animal Testing and Screening Procedures in Evaluating Psychotropic Drugs" in An Introduction of Psychopharmacology, Eds. R. R. Rech and K. E. Moore, Raven Press, New York, pp. 237-288 (1971)] that there is a high degree of correlation between antagonism of pentylenetetrazole seizures in rats and anti-anxiety effects in higher warm-blooded animals.

[2] = tested on: conflict situation induced in rats (number of shocks received); test: Non-conditioned passive avoidance (conflict) procedure in rats; format: in vivo; conditions: Sprague-Dawley rats, positive = 9 or more shocks in 4 to 5 minutes; for ED50: Rattus norvegicus, oral, comparison drugs tested in exactly the same manner, read-out: median effective dose (ED50)
Method: Another test which has been used to assess anti-anxiety effects is a non-conditioned passive avoidance procedure described by J. R. Vogel, B. Beer and D. E. Clody, "A Simple and Reliable Conflict Procedure for Testing Anti-Anxiety Agents", Psychopharmacologia, Vol. 21, pp. 1-7 (1971). A conflict situation is induced in rats by a modification of this method. To groups of six naive Sprague-Dawley rats (200-220 grams), previously deprived of water for forty-eight hours and food for 24 hours, are administered graded oral doses of test compound suspended in 2% starch vehicle also containing 2 drops of polyethylene glycol and polysorbate 80, or vehicle alone (controls). At the time of peak effect each rat is placed in a plexiglass box fitted with a drinkometer circuit connected between the stainless steel grid floor and a stainless steel drinking tube inserted in a hole in one of the walls of the box. A stimulator supplying monophasic 60 cycle square wave pulses of 0.2 milliamperes peak intensity, a timer which allows alternate 5 second " shock free" and 5 second "shock available" periods during a 5 minute test period, an electromagnetic counter to count the number of shocks received by the rat during the shock available period and a delay of one half second between the successive shocks are incorporated into the drinkometer circuit. After the rat is placed in the box, it is allowed to explore and drink 10% dextrose solution supplied through the tap. After twenty seconds of continuous unpunished drinking, the timer and drinkometer circuits are activated and 5 second shock free and 5 second shock available periods alternate. The number of shocks received by the rat during a 5 minute test period is recorded. The percentage of rats that receive 9 or more shocks in 4 to 5 minutes at each dose level is used as positive response in calculation of the median effective dose (ED50). The estimated (ED50) for the compound 3-methyl-6-phenyl-1,2,4-triazolo[4,3-b]pyridazine after one hour from oral administration is 100 mg./kg.

Row | Structure (SMILES) | ED50 [1] [mg/kg] | estimated median effective dose (ED50) ([2]; one hour after oral administration) [mg/kg] | ED50 [2] [mg/kg]
1 | Cc1nnc2ccc(-c3ccccc3)nn12 [3-methyl-6-phenyl-1,2,4-triazolo[4,3-b]pyridazine] | 3 | 100 | 
2 | CNC1=Nc2ccc(Cl)cc2C(c2ccccc2)=[N+]([O-])C1 [Chlordiazepoxide] | 2.5 |  | 9.6
3 | CCCC(C)(COC(N)=O)COC(N)=O [Meprobamate] | 22 |  | 51.9
